Converted amounts (≈) assume the structure as drawn.
Experiments:
acid ceramidase = target: T1, acid ceramidase (Homo sapiens, UniProt Q13510); test: Acid ceramidase inhibition, biochemical fluorescent assay with cell lysates overexpressing acid ceramidase, substrate Rbm14-12; settings: substrate Rbm14-12 6.3 μM
T1 construct: Cell lysates overexpressing acid ceramidase were used as the enzyme source; expressed in transfected cells
T1 sequence (Q13510 22-395): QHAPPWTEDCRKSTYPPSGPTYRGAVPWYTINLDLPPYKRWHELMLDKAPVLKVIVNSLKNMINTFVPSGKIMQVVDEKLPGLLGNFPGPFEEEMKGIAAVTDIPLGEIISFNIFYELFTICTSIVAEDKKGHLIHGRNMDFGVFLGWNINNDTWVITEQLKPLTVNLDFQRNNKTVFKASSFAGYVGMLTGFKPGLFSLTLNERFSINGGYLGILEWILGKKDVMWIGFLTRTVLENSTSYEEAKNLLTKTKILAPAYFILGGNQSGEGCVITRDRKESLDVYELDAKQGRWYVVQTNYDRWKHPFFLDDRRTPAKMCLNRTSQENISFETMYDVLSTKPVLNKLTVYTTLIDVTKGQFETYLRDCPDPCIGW
Method: The ability of exemplary compounds to inhibit acid ceramidase was measured.
Cell lysates overexpressing acid ceramidase were used as the enzyme source for compound potency determination in a biochemical fluorescent assay. Briefly, compounds were preincubated with 10 μg protein of cell lysates in a dose-response manner for 1 hr at RT in the assay buffer containing 25 mM NaAC and 100 mM NaCl, pH 4.5. The reaction was initiated by the addition of substrate Rbm14-12 at a final concentration of 6.3 μM. The reaction was run at RT for 1 hr before it was stopped by the addition of the stopping buffer containing 20% methanol (v/v), 1 mg/ml NaIO4, 0.1 M glycine, pH 10.6. The samples were incubated with the stopping buffer at RT for 1 hr to allow the fluorescent product to be formed. Finally, the plate was read with SpectraMax i3 plate reader (Molecular Devices) at ex360 nm and em446 nm. Data were collected and used to determine the IC50 values of compounds by curve fitting to the four-parameter inhibition equation.

[1] = Compound solubility in water
[2] = pH 4.5, 1 hr preincubation at RT

| IC50 (acid ceramidase; pH 4.5) | solubility [1] | IC50 (acid ceramidase; [2]) | Compound |
| --- | --- | --- | --- |
| – | 0.008 mg/mL (≈ 30.2 µM) | < 0.2 µM | O=C(NCCc1ccccc1)n1cnc2ccccc21 [Example 1, N-Phenethyl-1H-benzo[d]imidazole-1-carboxamide] |
| – | 0.01 mg/mL (≈ 33.9 µM) | < 0.2 µM | COc1nc2ccccc2n1C(=O)NCCc1ccccc1 [Example 3, 2-Methoxy-N-phenethyl-1H-benzo[d]imidazole-1-carboxamide] |
| – | 0.0206 mg/mL (≈ 56.8 µM) | < 0.2 µM | CN1CCC(c2ccc3c(c2)ncn3C(=O)NCCc2ccccc2)CC1 [Example 4, 5-(1-Methylpiperidin-4-yl)-N-phenethyl-1H-bezo[d]imidazole-1-carboxamide] |
| – | 0.0001 mg/mL (≈ 0.265 µM) | < 0.2 µM | O=C(NCCc1ccccc1)n1cnc2cc(Cl)c(-c3ccccn3)cc21 [Example 7b, 5-chloro-N-phenethyl-6-(pyridin-2-yl)-1H-benzo[d]imidazole-1-carboxamide] |
| – | 0.0037 mg/mL (≈ 10.8 µM) | < 0.2 µM | O=C(NCCc1ccccc1)n1cnc2cc(-c3cncnc3)ccc21 [Example 8a, N-Phenethyl-5-(pyrimidin-5-yl)-1H-benzo[d]imidazole-1-carboxamide] |
| – | 0.0145 mg/mL (≈ 42.2 µM) | < 0.2 µM | O=C(NCCc1ccccc1)n1cnc2ccc(-c3cncnc3)cc21 [Example 8b, N-phenethyl-6-(pyrimidin-5-yl)-1H-benzo[d]imidazole-1-carboxamide] |
| – | 0.0231 mg/mL (≈ 58.2 µM) | < 0.2 µM | CN1CCC(c2cc3ncn(C(=O)NCCc4ccccc4)c3cc2Cl)CC1 [Example 11b, 6-Chloro-5-(1-methylpiperidin-4-yl)-N-phenethyl-1H-benzo[d]imidazole-1-carboxamide] |
| – | 0.0026 mg/mL (≈ 7.46 µM) | < 0.2 µM | O=C(NCCc1ccccc1)n1cnc2cc(N3CCCCC3)ccc21 [Example 13a, N-Phenethyl-5-(piperidin-1-yl)-1H-benzo[d]imidazole-1-carboxamide] |
| – | 0.0161 mg/mL (≈ 45.9 µM) | < 0.2 µM | O=C(NCCc1ccccc1)n1cnc2cc(N3CCOCC3)ccc21 [Example 14a, 5-Morpholino-N-phenethyl-1H-benzo[d]imidazole-1-carboxamide] |
| – | 0.0312 mg/mL (≈ 89 µM) | < 0.2 µM | O=C(NCCc1ccccc1)n1cnc2ccc(N3CCOCC3)cc21 [Example 14b, 6-Morpholino-N-phenethyl-1H-benzo[d]imidazole-1-carboxamide] |
| – | 0.0229 mg/mL (≈ 63 µM) | < 0.2 µM | CN1CCN(c2ccc3ncn(C(=O)NCCc4ccccc4)c3c2)CC1 [Example 15b, 6-(4-Methylpiperazin-1-yl)-N-phenethyl-1H-benzo[d]imidazole-1-carboxamide] |
| – | 0.0019 mg/mL (≈ 7.56 µM) | < 0.2 µM | O=C(NCc1ccccc1)n1cnc2ccccc21 [Example 17, N-Benzyl-1H-benzo[d]imidazole-1-carboxamide] |
| – | 0.002 mg/mL (≈ 7.11 µM) | < 0.2 µM | O=C(NCCOc1ccccc1)n1cnc2ccccc21 [Example 18, N-(2-Phenoxyethyl)-1H-benzo[d]imidazole-1-carboxamide] |
| – | 0.0129 mg/mL (≈ 48.4 µM) | 0.2 to 1 µM | O=C(NCCc1cccnc1)n1cnc2ccccc21 [Example 22, N-(2-(Pyridin-3-yl)ethyl)-1H-benzo[d]imidazole-1-carboxamide] |

More lines, now with the values behind:

| Compound | IC50 (acid ceramidase; pH 4.5) | solubility [1] | IC50 (acid ceramidase; [2]) |
| --- | --- | --- | --- |
| CC(C)CCNC(=O)n1cnc2c(N3C[C@H](C)O[C@@H](C)C3)cccc21 (stereo in doubt) [Example 168, 4-((2S,6S)-2,6-Dimethylmorpholino)-N-iso-pentyl-1H-benzo[d]imidazole-1-carboxamide] | 0.2 to 1 µM | 0.011 mg/mL (≈ 31.9 µM) | – |
| COc1nc2ccc(N3CCOCC3)cc2n1C(=O)NCCc1ccccc1 [28 & 29a] | – | 0.018 mg/mL (≈ 47.3 µM) | 0.2 to 1 µM |
| Cc1nc2ccccc2n1C(=O)NCCc1ccccc1 [Example 2, 2-Methyl-N-phenethyl-1H-benzo[d]imidazole-1-carboxamide] | – | – | < 0.2 µM |
| O=C(NCCCc1ccccc1)n1cnc2ccccc21 [Example 5, N-(3-Phenylpropyl)-1H-benzo[d]imidazole-1-carboxamide] | – | 0.0138 mg/mL (≈ 49.4 µM) | < 0.2 µM |
| O=C(NCCCCc1ccccc1)n1cnc2ccccc21 [Example 6, N-(4-Phenylbutyl)-1H-benzo[d]imidazole-1-carboxamide] | – | 0.001 mg/mL (≈ 3.41 µM) | < 0.2 µM |
| O=C(NCCc1ccccc1)n1cnc2cc(-c3ccccn3)c(Cl)cc21 [Example 7a, 6-Chloro-N-phenethyl-5-(pyridin-2-yl)-1H-benzo[d]imidazole-1-carboxamide] | – | 0.0004 mg/mL (≈ 1.06 µM) | < 0.2 µM |
| O=C(NCCc1ccccc1)n1cnc2cc(-c3ncccn3)ccc21 [Example 9, N-Phenethyl-5-(pyrimidin-2-yl)-1H-benzo[d]imidazole-1-carboxamide] | – | 0.0054 mg/mL (≈ 15.7 µM) | < 0.2 µM |
| O=C(NCCc1ccccc1)n1cnc2cc(-c3cccnc3)ccc21 [Example 10a, N-Phenethyl-5-(pyridin-3-yl)-1H-benzo[d]imidazole-1-carboxamide] | – | 0.0012 mg/mL (≈ 3.5 µM) | < 0.2 µM |
| O=C(NCCc1ccccc1)n1cnc2ccc(-c3cccnc3)cc21 [Example 10b, N-phenethyl-6-(pyridin-3-yl)-1H-benzo[d]imidazole-1-carboxamide] | – | 0.0006 mg/mL (≈ 1.75 µM) | < 0.2 µM |
| CN1CCC(c2cc3c(cc2Cl)ncn3C(=O)NCCc2ccccc2)CC1 [Example 11a, 5-Chloro-6-(1-methylpiperidin-4-yl)-N-phenethyl-1H-benzo[d]imidazole-1-carboxamide] | – | 0.0231 mg/mL (≈ 58.2 µM) | < 0.2 µM |
| CN1CCC(c2cccc3c2ncn3C(=O)NCCc2ccccc2)CC1 [Example 12, 4-(1-Methylpiperidin-4-yl)-N-phenethyl-1H-benzo[d]imidazole-1-carboxamide] | – | 0.0305 mg/mL (≈ 84.1 µM) | < 0.2 µM |
| O=C(NCCc1ccccc1)n1cnc2ccc(N3CCCCC3)cc21 [Example 13b, N-Phenethyl-6-(piperidin-1-yl)-1H-benzo[d]imidazole-1-carboxamide] | – | 0.0091 mg/mL (≈ 26.1 µM) | < 0.2 µM |
| CN1CCN(c2ccc3c(c2)ncn3C(=O)NCCc2ccccc2)CC1 [Example 15a, 5-(4-Methylpiperazin-1-yl)-N-phenethyl-1H-benzo[d]imidazole-1-carboxamide] | – | 0.0204 mg/mL (≈ 56.1 µM) | < 0.2 µM |
| CC(C)CNC(=O)n1cnc2cc(-c3cncnc3)ccc21 [Example 16a, N-iso-Butyl-5-(pyrimidin-5-yl)-1H-benzo[d]imidazole-1-carboxamide] | – | 0.0042 mg/mL (≈ 14.2 µM) | < 0.2 µM |
| CC(C)CNC(=O)n1cnc2ccc(-c3cncnc3)cc21 [Example 16b, N-iso-Butyl-6-(pyrimidin-5-yl)-1H-benzo[d]imidazole-1-carboxamide] | – | 0.0183 mg/mL (≈ 62 µM) | < 0.2 µM |
| O=C(NCCc1ccccc1)n1cnc2ncccc21 [Example 19a, N-Phenethyl-1H-imidazo[4,5-b]pyridine-1-carboxamide] | – | 0.0261 mg/mL (≈ 98 µM) | < 0.2 µM |
| O=C(NCCc1ccccc1)n1cnc2cccnc21 [Example 19b, N-phenethyl-3H-imidazo[4,5-b]pyridine-3-carboxamide] | – | 0.0245 mg/mL (≈ 92 µM) | < 0.2 µM |
| O=C(NCCc1ccccc1)n1cnc2cnccc21 [Example 20, N-Phenethyl-1H-imidazo[4,5-c]pyridine-1-carboxamide] | – | 0.0053 mg/mL (≈ 19.9 µM) | < 0.2 µM |
| O=C(NCCc1ccccc1)n1cnc2ccncc21 [Example 21, N-Phenethyl-3H-imidazo[4,5-c]pyridine-3-carboxamide] | – | 0.0043 mg/mL (≈ 16.1 µM) | < 0.2 µM |
| CCCCCNC(=O)n1cnc2ccccc21 [Example 23, N-Pentyl-1H-benzo[d]imidazole-1-carboxamide] | – | 0.0133 mg/mL (≈ 57.5 µM) | < 0.2 µM |
| CCCCNC(=O)n1cnc2ccccc21 [Example 24, N-Butyl-1H-benzo[d]imidazole-1-carboxamide] | – | 0.0219 mg/mL (≈ 101 µM) | < 0.2 µM |
| COCCNC(=O)n1c(OC)nc2ncccc21 [Example 95, 2-Methoxy-N-(2-methoxyethyl)-1H-imidazo[4,5-b]pyridine-1-carboxamide] | – | – | 0.2 to 1 µM |
| CC(C)CCNC(=O)n1cnc2c(N3CCN(C)CC3)cc(Cl)cc21 [Example 112, 6-Chloro-N-iso-pentyl-4-(4-methylpiperazin-1-yl)-1H-benzo[d]imidazole-1-carboxamide] | – | 0.0275 mg/mL (≈ 75.6 µM) | – |
| CCOc1nc2cccnc2n1C(=O)NCCC(C)C [Example 113, 2-Ethoxy-N-iso-pentyl-3H-imidazo[4,5-b]pyridine-3-carboxamide] | – | – | < 0.2 µM |
| COc1nc2ncccc2n1C(=O)NCCCOc1ccccc1 [Example 129, 2-Methoxy-N-(3-phenoxypropyl)-1H-imidazo[4,5-h]pyridine-1-carboxamide] | – | – | < 0.2 µM |
| Cn1c(=O)n(C(=O)NCCCCn2ccc(C(C)(C)C)n2)c2ncccc21 [Example 135b, N-(4-(3-(tert-butyl)-1H-pyrazol-1-yl)butyl)-1-methyl-2-oxo-1,2-dihydro-3H-imidazo[4,5-b]pyridine-3-carboxamide] | – | 0.023 mg/mL (≈ 62.1 µM) | – |

From US20220380319A1 (Bial - R&D Investments, S.A., priority 2019, published 2022)
